# According to paper PMC4421842 (Nature Communications, 2015):
# Entries after “also recorded” stand apart in the source; their conditions may differ.
# Tests used:
# [1] = molecular target: T1, human topoisomerase II (Homo sapiens, UniProt P11388); test: Human topoisomerase decatenation assay; assay type: biochemical; settings: decatenation assay
# T1 construct: purchased Inspiralis
# Protocol: The decatenation assay was performed with the Human Topo II Decatenation Assay Kit (Inspiralis), according to the manufacturer's instructions, with minor modifications. First, a master mix was made containing 2 μl of 10 × assay buffer (500 mM Tris-HCl pH 7.5, 1250, mM NaCl, 100 mM MgCl2, 50 mM DTT, 1,000 μg ml^−1 albumin), 0.67 μl of 30 mM ATP, 1.34 μl of 0.1 ng μl^−1 kDNA, and 14.3 μl of nuclease-free water per sample is made. DMSO or 30 × compound is added to a 0.5-ml Eppendorf tube (0.67 μl per tube). The master mix is then added to each tube (18.3 μl per tube). Finally, 1 U of human topoisomerase (1 μl of 1 U μl^−1 stock) is added to each tube for a final volume of 20 μl. The tubes are then incubated at 37 °C for 30 min. Reactions are stopped by the addition of 20 μl of 24:1 chloroform:isoamyl alcohol and 20 μl of stop dye (40% sucrose, 1 mM EDTA, 100 mM Tris-HCl pH 7.5, 0.5 μg ml^−1 bromophenol blue). Samples were run on 1% agarose gels containing 0.5 μg ml^−1 ethidium bromide for 1 h at 110 V or until the dye front was approximately halfway down the gel. Gels were imaged on a Molecular Imager Gel Doc XR+ (Biorad).
# [2] = test system: Herring Sperm DNA; test: Intercalation assay (ethidium bromide displacement); assay type: binding
# Protocol: Intercalation assays were performed as previously described. The ability of DNM-2 to intercalate into DNA was measured by an ethidium bromide displacement assay. Herring Sperm DNA (34 μg ml^−1 final) was premixed with buffer containing ethidium bromide (50 mM Tris base, 100 mM NaCl, 1 mM EDTA, 5 μM EtBr pH 7.5). Ninety-five microlitres of this solution was added to a 96-well plate containing 5 μl of DMSO solutions of compounds. […] Doxorubicin was used as a positive control. The reactions were allowed to incubate for 30 min. Fluorescence was then read on a Gemini microplate reader (Molecular Devices, excitation=545 nm, emission=595 nm).
# [3] = In-vivo toxicity assessment, once daily for 10 days; design: species or system BALB/c mice; settings: mice
# Protocol: Toxicity was assessed as previously described. Specifically, heparinized whole blood was collected for assessment of total white blood cells, neutrophils, lymphocytes, haematocrit, platelets, creatinine, blood urea, nitrogen, albumin, alanine aminotransferase, alkaline phosphatase and total bilirubin. Mice were euthanized by overdosing with ketamine/xylazine and the heart, lung, kidney, liver, spleen, gastrointestinal tract and the brain were collected for histopathology. Tissue samples were fixed 24 h in 10% neutral buffered formalin, processed and paraffin embedded, sectioned (5 μm thickness) and stained with haematoxylin and eosin. All slides were systematically evaluated by a single board-certified veterinary anatomic pathologist (SL) for evidence of acute or chronic inflammation and toxicity. All lesions were characterized, recorded and scored for severity (minimal=1, mild=2, moderate=3, marked=4, and severe=5).
# [4] = test system: FQR MRSA (NRS3); test: In-vivo efficacy, mouse sepsis model; settings: 50 mg kg^−1 oral gavage once daily for 10 days; n=15; Kaplan–Meier, log rank survival test
# [5] = test system: FQR S. aureus (NRS3, FQR); test: MIC, microdilution broth assay, FQR MRSA NRS3; assay type: cell-based; settings: NRS3, S84L GyrA and S80F ParC, three independent replicates
# [6] = molecular target: T2, S83L E. coli DNA gyrase (Escherichia coli, UniProt P0AES4+P0AES6, S83L); assay type: biochemical; settings: DNA cleavage assay
# T2 construct: His tag (pTRCHisA vector; purified on Ni-NTA); made in house; host or cells: E. coli One Shot BL21 Star (DE3)
# [7] = test system: human erythrocytes; test: In-vitro haemolysis assay; assay type: cell-based; settings: human red blood cells, 2 h at 37°C, 160 µg mL-1 or highest concentration solubility allowed
# Protocol: Haemolysis assays were performed as previously described. Briefly, assays were performed using human erythrocytes within 3 days of receipt. One millilitre of human blood purchased from Bioreclamation, Inc. (Hicksville, NY) was centrifuged (10,000 × g, 2 min). The pellet was washed three times with sterile saline (0.9% NaCl in water) by repeated gentle suspension and centrifugation. The pellet was resuspended in RBC buffer (10 mM Na2HPO4, 150 mM NaCl, 1 mM MgCl2 pH 7.4). To evaluate haemolytic activity of DNM and derivatives, 1 μl either 3.2 mg ml^−1 DMSO stock (or the most concentrated stock of the compound available if not soluble at 3.2 mg ml^−1 in DMSO) was transferred to 0.5 ml Eppendorf tubes containing 19 μl RBC buffer. Negative control tubes contained 1 μl DMSO and 19 μl RBC buffer, and positive control tubes contained 1 μl DMSO and 19 μl sterile deionized water. A suspension of washed erythrocytes (10 μl) was added to each tubes and samples were incubated at 37 °C for 2 h. Samples were centrifuged at 10,000 × g for 2 min and the supernatants from each sample (25 μl) were transferred to a clear, sterile 384-well plate. The absorbance of these supernatants was measured at 540 nm using a SpectraMaxPlus384 absorbance plate reader (Molecular Devices). Per cent haemolysis of each sample was calculated relative to the average absorbance values measured for positive controls.
# [8] = test system: normal (that is, non-cancerous) cell lines; design: method as in PMID 10993200; settings: previously published data; cited from earlier work
# [9] = 50 mg kg-1 oral gavage once daily for 10 days
# [10] = 50 mg kg^−1 oral gavage once daily for 10 days
compound,measurement,setting,value
CCn1c(=O)cc(C)c2cc3c(C)cc(=O)n4c3c(c21)OC4 [DNM-2],concentration inhibiting human topoisomerase II,[1],> 30 µM
same,concentration with significant DNA intercalation,[2],> 30 µM
same,ALP,[3]; [9],60 ± 10 U/L
same,ALT,[3]; [9],36 ± 1 U/L
same,Albumin,[3]; [9],3.2 ± 0.1 g/dL
same,BUN (Urea),[3]; [9],32.0 ± 0.4 mg/dL
same,Creatine,[3]; [9],0.2 ± 0.0 mg/dL
same,Globulin,[3]; [9],2.62 ± 0.05 g/dL
same,Hematocrit,[3]; [9],40 ± 1%
same,Hemoglobin,[3]; [9],14.2 ± 0.3 g/dL
same,Lymphocyte,[3]; [9],81 ± 3 % of WBC
same,Mean Cell Volume,[3]; [9],47.3 ± 0.4 fL
same,Neutrophil,[3]; [9],18 ± 3 % of WBC
same,RBC,[3]; [9],8.5 ± 0.2 X106/µL
same,WBC,[3]; [9],3800 ± 300 cells/µL
same,Platelet,"[3]; 50 mg kg-1 oral gavage once daily for 10 days, counts low because of platelet clumps","60,000 ± 10,000 cells/µL"
same,Total Bilirubin,"[3]; 50 mg kg-1 oral gavage once daily for 10 days, increased also in vehicle due to hemolysis during blood collection",0.7 ± 0.1 mg/dL
same,adipocytes and triglyceride levels,[3]; [10],Increased vacuolation of white and brown adipocytes with a minimal increase in triglyceride levels
same,haematological and non-haematological toxicity markers,[3]; [10],"No clinically significant evidence for myelosuppression, renal injury or hepatic toxicity was identified"
same,"histopathology of kidney, brain, lung, liver, spleen, heart and stomach",[3]; [10],did not reveal any evidence of toxicity
same,histopathology of small intestine sections,[3]; [10],mild intestinal dilation associated with villi atrophy
same,"survival of mice infected with MRSA (NRS3, FQR)",[4],***P<0.005 versus vehicle and CIP; also recorded: significant survival difference relative to both CIP and vehicle-treated control; also recorded: effective in treating mice infected with MRSA
"Cc1cc(=O)n(C)c2c3c4c(cc12)c(C)cc(=O)n4CO3 [DNM, deoxynybomycin]",MIC against S. aureus NRS3,[5],0.03 µg/mL
same,MIC,"[5]; Staphylococcus aureus, read-out: MIC against S. aureus NRS3",0.03 µg/mL
same,concentration giving significant buildup of OC DNA (P<0.05),[6],0.17 µM
same,haemolysis,[7],none of these compounds induce haemolysis
same,toxicity to normal (non-cancerous) cell lines,[8],non-toxic
